Values of other authors in paper PMC13379419, “Integrating high-fidelity hiPSC-cardiomyocytes with AI-driven modeling for enhanced proarrhythmic risk assessment” (Archives of Toxicology, 2026).

Design: method as in none printed
Settings: clinical maximum plasma concentration

For `C=C[C@H]1C[N@@]2CC[C@H]1C[C@@H]2[C@@H](O)c1ccnc2ccc(OC)cc12` [Quinidine], the Cmax is given as 3000 nM.
